Values quoted from earlier work as cited in PMC5988656, “Phase I studies of AZD1208, a proviral integration Moloney virus kinase inhibitor in solid and haematological cancers” (British Journal of Cancer, 2018).

Tests used:
[1] = tested on: relapsed/refractory multiple myeloma (RRMM); details: in vivo; cited from earlier work
[2] = tested on: refractory prostate cancer and relapsed/refractory non-Hodgkin lymphoma; set-up: method as in ClinicalTrials.gov, NCT00848601; details: ref ClinicalTrials.gov, NCT00848601; cited from earlier work

Structure (SMILES) | DLT fatigue [1] [n] | DLT hypophosphatemia [1] [n] | DLT thrombocytopenia [1] [n] | DLT vasovagal syncope [1] [n] | DLTs [1] | Outcome of clinical development [2]
C[C@@H]1C[C@H](N)C[C@H](c2ccncc2NC(=O)c2ccc(F)c(-c3c(F)cccc3F)n2)C1 [LGH447] | 2 | 1 | 4 | 1 | eight | –
CN1CCC(CNc2ccc3ncc(-c4cccc(OC(F)(F)F)c4)n3n2)CC1 [SGI-1776] | – | – | – | – | – | discontinued because of QTc prolongation
